Experimental data from patent US5614550A, “Amide and urea derivatives having anti-hypercholesteremic activity, their preparation and their therapeutic uses” (Sankyo Company, Limited, priority 1993, dated 1997).

Biological target: T1, ACAT in M.phi. (acyl-CoA: cholesterol acyl transferase) (Mus musculus, UniProt Q61263)
T1 construct: endogenous in cells; host or cells: primary adherent peritoneal macrophages from unstimulated female DDY mice
T1 sequence (Q61263 1-540): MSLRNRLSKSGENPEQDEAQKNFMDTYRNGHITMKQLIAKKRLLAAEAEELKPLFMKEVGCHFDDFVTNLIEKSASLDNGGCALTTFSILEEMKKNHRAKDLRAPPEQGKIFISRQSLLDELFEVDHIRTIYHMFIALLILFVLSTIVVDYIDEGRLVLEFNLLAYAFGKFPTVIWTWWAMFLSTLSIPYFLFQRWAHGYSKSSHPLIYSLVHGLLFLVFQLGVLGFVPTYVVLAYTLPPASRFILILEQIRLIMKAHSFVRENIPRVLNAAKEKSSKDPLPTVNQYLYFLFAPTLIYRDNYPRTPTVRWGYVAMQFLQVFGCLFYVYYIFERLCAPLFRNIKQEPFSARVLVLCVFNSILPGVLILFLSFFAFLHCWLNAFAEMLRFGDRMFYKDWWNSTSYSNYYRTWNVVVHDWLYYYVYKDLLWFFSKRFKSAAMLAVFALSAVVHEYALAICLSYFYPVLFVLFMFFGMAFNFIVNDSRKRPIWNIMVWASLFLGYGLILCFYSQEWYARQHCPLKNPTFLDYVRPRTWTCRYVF
Assay: Inhibition of ACAT in mouse macrophages (M.phi.), cholesterol [14C]oleate formation
Assay type: cell-based
Parameters: dose or concentration left out as unconfirmed
Conditions: mouse peritoneal macrophages, beta-VLDL, 37° C., 3 hours
Description: Blood was obtained [using the anticoagulant ethylene diamine tetraacetic acid (5 mM)] from Japanese White rabbits which had been fed a 2% w/w cholesterol diet for 2 weeks and then fasted overnight prior to removing the blood. β-VLDL (d<1.006 g/ml) was isolated by ultracentrifugation from the plasma according to the method of Hatch and Lees [Hatch, F. T. and Lees, R. S., Adv. Lipid Res., 6, 1-68 (1968)] and dialyzed against 10 mM of a sodium phosphate buffer (pH 7.4) containing 150 mM sodium chloride at 4° C.
Peritoneal cells were harvested from unstimulated female DDY mice (body weight 20-30 g) in phosphate buffer saline (PBS) as described by Edelson and Cohn [Edelson, P. J. and Cohn, Z. A., 1976, IN VITRO Methods in Cell-Mediated and Tumor Immunity, eds, Bloon, B. R. and DAvid, J. R., (Academic, New York), 333-340.]. The fluid from the mice was pooled and the cells were collected by centrifugation at 400× g, for 10 minutes at 4° C., and washed once with PBS. The cells were resuspended in Dulbecco's modified Eagle's medium (DMEM) containing 10% (vol/vol) fetal calf serum (FCS), penicillin (100 units/ml), and streptomycin (100 μg/ml) at a final concentration of 3×10^6 cells per ml. Aliquots (1 ml) of this cell suspension were dispersed onto plastic Petri dishes (35×10 mm) and then incubated in a CO2 incubator (5% CO2 /95% air) at 37° C. for 2 hours. Each dish was washed twice with PBS without serum to remove nonadherent cells. The cells were washed twice with 2 ml of PBS and used for the experiment.
Inhibition of ACAT in M.phi. was determined according to the method described by Brown et al. [Brown, M. S., Goldstein J. L., Krieger, M., Ho, Y. K. and Anderson, R. G. W. (1979) J. Cell Biol., 82, 597-613.]. Cholesterol reacylation was initiated by adding β-VLDL (final concentration 50 μg/ml cholesterol), [^14 C]oleate-albumin complex (final concentrations: 0.2 mM oleate and 0.6 mg/ml albumin) and a test compound dissolved in ethanol into the M.phi. monolayer, and the preparation was incubated at 37° C. for 3 hours in a CO2 incubator. Cells were washed three times with PBS and cellular lipid was extracted with 1 ml hexane/isopropanol (3:2, vol/vol). A lipid extract was evaporated in a stream of nitrogen. Cholesterol [^14 C]oleated was seperated by thin layer chromatography through silica gel using a 85:15:1 by volume mixture of hexane, diethyl ether and acetic acid as developing solvents. The ACAT activity in M.phi. was determined by measuring the radioactivity and an inhibition rate (%) was calculated by comparing a control activity with those of the test compound at given concentrations.

inhibition | SMILES
51% | CC(C)c1cccc(C(C)C)c1NC(=O)CC1c2ccccc2Oc2ccccc21 [Compound A, reference compound]
89% | CC(C)(C)c1ccc(CCC(O)CCCCC2CCCCC2)cc1NC(=O)CC1c2ccccc2Oc2ccccc21 (centres unmarked) [Example 44, N-[2-t-Butyl-5-(7-cyclohexyl-3-hydroxyheptyl)phenyl]-2-(9H-xanthen-9-yl)acetamide]
85% | CC(C)c1cccc(CCC(O)CCCC2CCCCC2)c1NC(=O)CC1c2ccccc2Oc2ccccc21 (centres unmarked) [Example 125, N-[2-Isopropyl-6-(6-cyclohexyl-3-hydroxyhexyl)phenyl]-2-(9H-xanthen-9-yl)acetamide]
80% | CC(C)(C)c1ccc(CCC(=O)CC2CCCCC2)cc1NC(=O)CC1c2ccccc2Oc2ccccc21 [Example 13, N-[2-t-Butyl-5-(4-cyclohexyl-3-oxobutyl)phenyl]-2-(9H-xanthen-9-yl)acetamide]
86% | CC(C)(C)c1ccc(CCC(O)COCCC2CCCCC2)cc1NC(=O)CC1c2ccccc2Oc2ccccc21 (centres unmarked) [Example 219, N-{2-t-Butyl-5-[4-(2-cyclohexylethoxy)-3-hydroxybutyl]phenyl}-2-(9H-xanthen-9-yl)acetamide]
74% | CC(C)(C)c1ccc(CCC(O)CCOC2CCCCC2)cc1NC(=O)CC1c2ccccc2Oc2ccccc21 (centres unmarked) [Example 217, N-[2-t-Butyl-5-(5-cyclohexyloxy-3-hydroxypentyl)phenyl]-2-(9H-xanthen-9-yl)acetamide]
77% | CC(C)(C)c1ccc(CCC(O)CCC2CCCCC2)cc1NC(=O)CC1c2ccccc2Oc2ccccc21 (centres unmarked) [Example 26, N-[2-t-Butyl-5-(5-cyclohexyl-3-hydroxypentyl)phenyl]-2-(9H-xanthen-9-yl)acetamide]
81% | CC(C)(C)c1ccc(CCC(O)C2CCCCCC2)cc1NC(=O)CC1c2ccccc2Oc2ccccc21 (centres unmarked) [Example 98, N-[2-t-Butyl-5-(3-cycloheptyl-3-hydroxypropyl)phenyl]-2-(9H-xanthen-9-yl)acetamide]
